Where two headings read alike, the source gives them in different places.
Columns and labels:
[1] = Safety of intranasal naloxone in humans (Study 1): nasal irritation, vital signs, ECG, clinical laboratory; assay type: in vivo, human
Protocol: These vital signs and temperature were also measured at screening, clinic intake, one day after each dosing session and at follow-up. […] AEs were recorded from the start of study-drug administration until clinic discharge. […] Clinical laboratory measurements were done prior to the first drug administration and on the day of clinic release.
Statistical Analysis of Adverse Events: AEs were coded using the most recent version of the Medical Dictionary for Regulatory Activities (MedDRA). Preferred terms and are grouped by system, organ, class (SOC) designation. AEs are presented as a listing including the start date, stop date, severity, relationship, outcome, and duration.

[2] = Safety of intranasal naloxone in humans (Study 2): nasal irritation, adverse events, vital signs, ECG; assay type: in vivo, human
Source text: Specifically, the study had several objectives.
AEs were coded using the most recent version of the Medical Dictionary for Regulatory Activities (MedDRA) preferred terms and grouped by system, organ, class (SOC) designation. Separate summaries will be provided for the 5 study periods: after the administration of each dose of study drug up until the time of the next dose of study drug or clinic discharge. Listings of each individual AE including start date, stop date, severity, relationship, outcome, and duration were provided. Results are given below in Tables 12 and 13.

[3] = for Cmax/D, GLSM: dose adjustment to 0.4 mg
[4] = test system: patients with suspected opioid overdose; settings: cited from earlier work
[5] = test system: suspected opiate overdose; settings: cited from earlier work
overdose events = settings: cited from earlier work
[6] = test system: patients with suspected narcotic overdose; settings: cited from earlier work
[7] = test system: suspected opiate overdose; settings: cited from earlier work; remark: listed apart in the source
heroin overdose = settings: 2 mg IM naloxone, 69/89; cited from earlier work

## C=CCN1CC[C@]23c4c5ccc(O)c4O[C@H]2C(=O)CC[C@@]3(O)[C@H]1C5 [naloxone, 17-allyl-4,5a-epoxy-3,14-dihydroxymorphinan-6-one]
[1]; 2 mg IN dose
  Pharyngeal pain: One subject experienced mild transient (over 3 min) pharyngeal pain
[1]; IN naloxone at 2 and 4 mg to both nostrils
  Nasal irritation (erythema, edema, erosion, other sign in the nasal cavity): No erythema, edema, erosion, or other sign was observed
[1]; Study 1
  QTcF prolongation: no evidence of QTcF prolongation
[1]; after naloxone administration, Study 1
  Vital signs, ECG, and clinical laboratory parameters: did not reveal any clinically noteworthy changes
[2]; 0.4 mg Intramuscular Dose
  Dizziness (adverse events): 1
  Headache (adverse events): 1
  Nausea (adverse events): 1
[2]; 2 mg (20 mg/mL, one spray)
  Edema (events related to nasal irritation): 2
  Erythema (events related to nasal irritation): 4
  Nasal Pain (adverse events): 1
  Other (events related to nasal irritation): 1
  Total (events related to nasal irritation): 7
[2]; 4 mg (20 mg/mL, two sprays)
  Edema (events related to nasal irritation): 0
  Erythema (events related to nasal irritation): 1
  Other (events related to nasal irritation): 0
  Total (events related to nasal irritation): 1
[2]; 4 mg (40 mg/mL, one spray)
  Edema (events related to nasal irritation): 2
  Erythema (events related to nasal irritation): 1
  Other (events related to nasal irritation): 0
  Total (events related to nasal irritation): 3
[2]; 8 mg (40 mg/mL, two sprays)
  Edema (events related to nasal irritation): 1
  Erythema (events related to nasal irritation): 0
  Headache (adverse events): 1
  Other (events related to nasal irritation): 0
  Total (events related to nasal irritation): 1
[2]; 2 to 8 mg IN
  Relation of nasal irritation to the dose of naloxone given: did not appear to be positively related to the dose
[2]; Study 2
  QTcF prolongation: no evidence of QTcF prolongation
[2]; after naloxone administration, Study 2
  Vital signs, ECG, and clinical laboratory parameters: did not reveal any clinically noteworthy changes
[2]; nasal or intramuscular administration, Study 2
  Adverse events overall: few adverse events were reported
[3]; 0.4 mg IM
  λz, Mean: 0.593 h⁻¹
  Cmax/D, GLSM: 0.755 ng/mL
[3]; 2 mg IN
  λz, Mean: 0.588 h⁻¹
  Cmax/D, GLSM: 0.510 ng/mL
[3]; 2 mg IN versus IM
  Frel, Mean: 0.571
[3]; 4 mg IN versus IM
  Frel, Mean: 0.475
[3]; 4 mg IN
  Cmax/D, GLSM: 0.466 ng/mL
[4]; naloxone 0.4 mg IV
  mean interval from EMS arrival to a respiratory rate of ≧10 breaths/min: 9.3 ± 4.2 min
[4]; naloxone 0.8 mg SQ
  mean interval from EMS arrival to a respiratory rate of ≧10 breaths/min: 9.6 ± 4.58 min
[5]; 2 mg IN, 43 of 52 patients who responded to naloxone by IN or IV
  patients responding to IN naloxone alone: 83%
[5]; 2 mg IN
  median time from administration of the IN naloxone to patient awakening: 3.0 min
  median time from arrival at patient side to awakening: 8.0 min
[5]; among responders to 2 mg IN alone
  patients requiring further doses of IV naloxone: 16%
Overdose events; 399 overdose events where naloxone was used, participant-reported
  overdose events reversed: 89%
Overdose events; take-home naloxone
  participants reporting serious adverse effects: < 1%
[6]; IN group (2 mg), 33 of 50
  Clinical response noted: 66%
[6]; IN group
  mean time between naloxone administration and clinical response: 12.9 min
  patients who received two doses of naloxone: 34%
[6]; IV group, 58 of 104
  Clinical response noted: 56%
[6]; IV group
  mean time between naloxone administration and clinical response: 8.1 min
  patients who received two doses of naloxone: 18%
[7]; 2 mg IM group
  patients with more than 10 spontaneous respirations per minute within 8 minutes: 82%
[7]; 2 mg IN group
  patients with more than 10 spontaneous respirations per minute within 8 minutes: 63%
[7]; IM group
  patients needing rescue naloxone: 13%
[7]; IN group
  patients needing rescue naloxone: 26%
Heroin overdose
  rate of response within 10 minutes: 77.5%

From patent US20160008277A1, “CO-PACKAGED DRUG PRODUCTS” (Lightlake Therapeutics Inc., priority 2014, published 2016)
